The source of these data is the kinase profiling compilation of Christmann-Franck et al. (2016).

Common to all, as to experiment: radiometric filter-binding kinase assay
The target of one test is ABL1 (human) (UniProt P00519). To be noted: compound 1.0 µM.
Another test concerns the target AURKA (human) (UniProt O14965). Particulars: compound 1.0 µM.
Another test concerns the target BRSK1 (human) (UniProt Q8TDC3). To be noted: compound 1.0 µM.
The target in another test is BTK (human) (UniProt Q06187). Particulars: compound 1.0 µM.
The target of a further test is CLK2 (human) (UniProt P49760). Particulars: compound 1.0 µM.
Sequence of CLK2 (human) (P49760 whole entry, looked up): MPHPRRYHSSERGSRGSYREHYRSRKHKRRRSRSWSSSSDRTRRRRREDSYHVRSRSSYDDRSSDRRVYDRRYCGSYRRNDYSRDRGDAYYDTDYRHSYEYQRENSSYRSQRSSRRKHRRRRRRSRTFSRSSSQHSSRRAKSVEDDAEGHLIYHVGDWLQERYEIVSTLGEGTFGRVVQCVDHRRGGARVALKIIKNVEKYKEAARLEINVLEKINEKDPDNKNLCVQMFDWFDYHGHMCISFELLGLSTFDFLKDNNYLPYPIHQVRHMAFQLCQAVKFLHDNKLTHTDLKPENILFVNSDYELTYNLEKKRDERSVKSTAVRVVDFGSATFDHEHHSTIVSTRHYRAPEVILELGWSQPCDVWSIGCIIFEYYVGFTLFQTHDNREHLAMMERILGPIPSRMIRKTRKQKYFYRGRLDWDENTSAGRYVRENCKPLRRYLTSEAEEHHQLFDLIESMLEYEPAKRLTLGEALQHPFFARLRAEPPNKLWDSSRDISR
The next test deals with DAPK1 (human) (UniProt P53355). Particulars: compound 1.0 µM.
Sequence of DAPK1 (human) (P53355 whole entry, looked up): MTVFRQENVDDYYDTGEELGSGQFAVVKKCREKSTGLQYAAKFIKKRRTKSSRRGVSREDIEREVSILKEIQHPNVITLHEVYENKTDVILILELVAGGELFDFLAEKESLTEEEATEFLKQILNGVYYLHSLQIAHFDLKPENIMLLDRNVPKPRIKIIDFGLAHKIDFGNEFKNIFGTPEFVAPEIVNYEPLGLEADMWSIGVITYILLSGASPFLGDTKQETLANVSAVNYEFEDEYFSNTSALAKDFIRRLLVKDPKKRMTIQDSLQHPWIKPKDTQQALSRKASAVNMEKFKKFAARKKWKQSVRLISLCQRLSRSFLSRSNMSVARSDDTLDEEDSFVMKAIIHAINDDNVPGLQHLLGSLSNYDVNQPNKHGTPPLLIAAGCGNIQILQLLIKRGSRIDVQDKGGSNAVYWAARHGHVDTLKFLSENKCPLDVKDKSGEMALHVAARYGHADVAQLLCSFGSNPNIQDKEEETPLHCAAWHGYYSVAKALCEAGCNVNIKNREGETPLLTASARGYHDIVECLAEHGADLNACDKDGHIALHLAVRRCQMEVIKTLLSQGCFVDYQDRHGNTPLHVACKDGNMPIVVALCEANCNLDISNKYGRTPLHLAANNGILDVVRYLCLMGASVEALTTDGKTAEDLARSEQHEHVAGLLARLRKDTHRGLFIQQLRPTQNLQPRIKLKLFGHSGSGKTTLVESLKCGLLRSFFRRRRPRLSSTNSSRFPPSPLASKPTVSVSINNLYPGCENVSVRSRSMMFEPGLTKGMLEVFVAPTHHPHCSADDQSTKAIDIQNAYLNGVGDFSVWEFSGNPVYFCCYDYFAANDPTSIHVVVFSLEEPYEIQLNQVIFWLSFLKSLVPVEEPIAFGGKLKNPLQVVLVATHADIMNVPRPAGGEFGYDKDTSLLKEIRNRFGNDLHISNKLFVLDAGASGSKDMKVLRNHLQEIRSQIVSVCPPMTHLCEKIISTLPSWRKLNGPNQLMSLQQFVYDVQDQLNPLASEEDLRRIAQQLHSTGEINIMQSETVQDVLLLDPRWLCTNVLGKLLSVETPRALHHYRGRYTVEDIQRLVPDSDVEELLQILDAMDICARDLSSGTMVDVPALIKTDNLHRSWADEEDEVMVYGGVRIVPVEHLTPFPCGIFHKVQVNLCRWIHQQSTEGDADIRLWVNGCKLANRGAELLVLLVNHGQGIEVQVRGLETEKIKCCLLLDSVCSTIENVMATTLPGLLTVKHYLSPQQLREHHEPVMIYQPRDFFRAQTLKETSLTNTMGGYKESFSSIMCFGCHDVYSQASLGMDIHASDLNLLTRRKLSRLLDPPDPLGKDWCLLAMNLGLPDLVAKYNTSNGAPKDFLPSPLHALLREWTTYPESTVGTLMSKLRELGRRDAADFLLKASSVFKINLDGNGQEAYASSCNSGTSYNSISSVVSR
Another test concerns the target EPHA4 (human) (UniProt P54764). Particulars: compound 1.0 µM.
In the next test the target is EPHB1 (human) (UniProt P54762). Particulars: compound 1.0 µM.
Sequence of EPHB1 (human) (P54762 whole entry, looked up): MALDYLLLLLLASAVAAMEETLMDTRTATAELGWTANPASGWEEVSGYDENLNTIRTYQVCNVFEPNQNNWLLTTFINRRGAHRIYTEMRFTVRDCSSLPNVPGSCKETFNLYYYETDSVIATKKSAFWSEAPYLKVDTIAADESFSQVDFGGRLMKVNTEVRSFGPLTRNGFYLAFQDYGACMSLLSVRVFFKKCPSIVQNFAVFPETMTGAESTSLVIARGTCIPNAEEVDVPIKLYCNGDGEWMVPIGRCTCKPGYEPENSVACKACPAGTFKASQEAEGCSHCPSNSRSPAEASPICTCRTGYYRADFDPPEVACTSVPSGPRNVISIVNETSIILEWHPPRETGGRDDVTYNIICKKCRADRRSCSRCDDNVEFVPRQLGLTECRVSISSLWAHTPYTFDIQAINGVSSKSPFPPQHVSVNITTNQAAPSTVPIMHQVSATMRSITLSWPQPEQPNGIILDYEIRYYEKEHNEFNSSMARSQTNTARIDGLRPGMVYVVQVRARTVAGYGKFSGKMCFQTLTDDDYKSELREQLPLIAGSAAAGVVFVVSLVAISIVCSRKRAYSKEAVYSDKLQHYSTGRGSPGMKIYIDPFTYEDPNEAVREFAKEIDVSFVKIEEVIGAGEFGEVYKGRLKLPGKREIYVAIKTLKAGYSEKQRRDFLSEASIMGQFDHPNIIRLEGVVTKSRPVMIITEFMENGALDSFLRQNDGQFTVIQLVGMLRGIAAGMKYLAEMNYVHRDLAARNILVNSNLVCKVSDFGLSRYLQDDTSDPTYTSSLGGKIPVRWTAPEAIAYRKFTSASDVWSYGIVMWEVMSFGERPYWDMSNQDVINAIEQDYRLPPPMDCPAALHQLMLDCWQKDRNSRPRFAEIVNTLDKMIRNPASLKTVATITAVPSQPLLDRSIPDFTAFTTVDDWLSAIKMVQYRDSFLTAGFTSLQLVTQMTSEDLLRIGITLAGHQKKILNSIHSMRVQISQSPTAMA
A further test has as its target EPHB2 (human) (UniProt P29323). To be noted: compound 1.0 µM.
A further test addresses EPHB4 (human) (UniProt P54760). To be noted: compound 1.0 µM.
The target of a further test is ERBB4 (human) (UniProt Q15303). Particulars: compound 1.0 µM.
For a further test, the target named is FLT1 (human) (UniProt P17948). To be noted: compound 1.0 µM.
In another test the target is GCK (human) (UniProt Q12851). Particulars: compound 1.0 µM.
A further test deals with HIPK1 (human) (UniProt Q86Z02). To be noted: compound 1.0 µM.
The next test has as its target INSR (human) (UniProt P06213). Particulars: compound 1.0 µM.
The target of the next test is IRAK4 (human) (UniProt Q9NWZ3). Particulars: compound 1.0 µM.
Another test addresses JAK2 JH1 JH2 (human) (UniProt O60674). Particulars: compound 1.0 µM.
Another test has as its target MAP2K6 (human) (UniProt P52564). Particulars: compound 1.0 µM.
The target in the next test is MAP3K1 (human) (UniProt Q13233). To be noted: compound 1.0 µM.
The next test concerns the target MAP3K5 (human) (UniProt Q99683). To be noted: compound 1.0 µM.
The next test addresses MAP3K7 TAB1 (human) (UniProt Q15750+O43318). Particulars: compound 1.0 µM.
For a further test, the target named is MAPK10 (human) (UniProt P53779). To be noted: compound 1.0 µM.
The target of the next test is MARK1 (human) (UniProt Q9P0L2). To be noted: compound 1.0 µM.
The next test addresses MARK2 (human) (UniProt Q7KZI7). Particulars: compound 1.0 µM.
Another test addresses MARK4 (human) (UniProt Q96L34). To be noted: compound 1.0 µM.
In another test the target is NTRK1 (human) (UniProt P04629). Particulars: compound 1.0 µM.
In test [1] the test system is PAK2 (human), Q13177 [T402E]. Particulars: compound 1.0 µM.
Sequence of PAK2 (human), Q13177 [T402E] (Q13177 whole entry T402E, looked up): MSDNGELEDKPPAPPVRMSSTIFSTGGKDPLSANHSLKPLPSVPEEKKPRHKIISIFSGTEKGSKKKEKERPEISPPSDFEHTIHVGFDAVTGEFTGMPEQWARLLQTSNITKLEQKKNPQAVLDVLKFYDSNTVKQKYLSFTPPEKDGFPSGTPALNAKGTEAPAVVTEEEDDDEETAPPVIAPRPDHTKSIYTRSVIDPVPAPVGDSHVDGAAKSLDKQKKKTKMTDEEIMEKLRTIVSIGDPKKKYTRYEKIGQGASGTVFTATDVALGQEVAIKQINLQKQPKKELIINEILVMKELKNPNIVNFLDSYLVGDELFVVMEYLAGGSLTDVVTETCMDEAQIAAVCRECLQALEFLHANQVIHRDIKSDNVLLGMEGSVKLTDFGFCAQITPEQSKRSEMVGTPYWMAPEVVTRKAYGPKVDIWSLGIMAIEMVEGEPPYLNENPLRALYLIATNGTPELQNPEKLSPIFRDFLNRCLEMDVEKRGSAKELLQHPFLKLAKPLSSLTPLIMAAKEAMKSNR
In the next test the target is RPS6KA5 KD1 KD2 (human) (UniProt O75582).
Sequence of RPS6KA5 KD1 KD2 (human) (O75582 whole entry, looked up): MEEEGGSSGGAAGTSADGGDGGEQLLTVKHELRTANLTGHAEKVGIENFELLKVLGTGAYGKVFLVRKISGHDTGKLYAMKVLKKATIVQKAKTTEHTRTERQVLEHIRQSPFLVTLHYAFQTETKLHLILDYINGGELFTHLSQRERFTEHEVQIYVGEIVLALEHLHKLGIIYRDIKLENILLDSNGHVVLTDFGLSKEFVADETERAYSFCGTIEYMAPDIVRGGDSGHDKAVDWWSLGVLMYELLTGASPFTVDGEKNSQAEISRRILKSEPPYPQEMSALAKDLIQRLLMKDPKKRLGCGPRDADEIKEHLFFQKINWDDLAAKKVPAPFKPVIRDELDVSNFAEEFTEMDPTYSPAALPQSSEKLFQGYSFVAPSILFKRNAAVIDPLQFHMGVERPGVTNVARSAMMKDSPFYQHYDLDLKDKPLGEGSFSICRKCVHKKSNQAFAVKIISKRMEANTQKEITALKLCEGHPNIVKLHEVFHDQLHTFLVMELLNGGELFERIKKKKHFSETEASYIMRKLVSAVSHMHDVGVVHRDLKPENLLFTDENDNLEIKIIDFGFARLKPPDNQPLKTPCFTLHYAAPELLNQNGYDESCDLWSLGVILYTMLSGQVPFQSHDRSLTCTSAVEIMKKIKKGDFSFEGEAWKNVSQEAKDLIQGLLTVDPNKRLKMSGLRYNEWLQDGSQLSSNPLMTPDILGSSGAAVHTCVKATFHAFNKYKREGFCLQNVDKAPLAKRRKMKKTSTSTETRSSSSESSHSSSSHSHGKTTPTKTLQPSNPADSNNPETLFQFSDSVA
Test [2] deals with STK11 CAB39 STRADA (human) (UniProt Q9Y376+Q7RTN6+Q15831). To be noted: compound 1.0 µM.
For another test, the target named is STK16 (human) (UniProt O75716). To be noted: compound 1.0 µM.
Another test concerns the target STK33 (human) (UniProt Q9BYT3). To be noted: compound 1.0 µM.
The next test concerns the target TAOK1 (human) (UniProt Q7L7X3). Particulars: compound 1.0 µM.
In a further test the target is TTK (human) (UniProt P33981). Particulars: compound 1.0 µM.
Sequence of TTK (human) (P33981 whole entry, looked up): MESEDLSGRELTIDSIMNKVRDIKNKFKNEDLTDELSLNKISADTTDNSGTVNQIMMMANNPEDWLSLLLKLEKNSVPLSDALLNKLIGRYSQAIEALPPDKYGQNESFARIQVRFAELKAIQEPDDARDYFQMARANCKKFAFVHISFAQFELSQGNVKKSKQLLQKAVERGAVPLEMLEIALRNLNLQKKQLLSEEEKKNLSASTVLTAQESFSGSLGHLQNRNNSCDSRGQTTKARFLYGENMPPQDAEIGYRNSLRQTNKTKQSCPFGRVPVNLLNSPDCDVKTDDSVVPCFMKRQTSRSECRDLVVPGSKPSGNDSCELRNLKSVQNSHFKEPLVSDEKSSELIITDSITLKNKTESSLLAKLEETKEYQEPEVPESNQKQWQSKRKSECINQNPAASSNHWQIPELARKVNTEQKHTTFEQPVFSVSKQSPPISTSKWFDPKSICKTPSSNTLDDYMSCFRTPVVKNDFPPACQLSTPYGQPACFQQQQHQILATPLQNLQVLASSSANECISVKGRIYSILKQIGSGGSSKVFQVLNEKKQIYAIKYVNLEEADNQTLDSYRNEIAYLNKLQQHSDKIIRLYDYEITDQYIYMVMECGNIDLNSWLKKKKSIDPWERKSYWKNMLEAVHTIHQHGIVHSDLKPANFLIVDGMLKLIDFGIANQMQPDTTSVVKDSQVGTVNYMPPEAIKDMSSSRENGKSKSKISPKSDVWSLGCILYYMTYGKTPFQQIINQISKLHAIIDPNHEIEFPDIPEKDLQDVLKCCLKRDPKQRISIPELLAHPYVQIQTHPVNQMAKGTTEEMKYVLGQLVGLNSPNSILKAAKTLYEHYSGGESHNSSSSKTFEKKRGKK
The next test deals with DYRK1A (human) (UniProt Q13627). To be noted: compound 1.0 µM.
A further test concerns the target PDPK1 (human) (UniProt O15530). To be noted: compound 1.0 µM.

Molecules are shown by their SMILES. Several values for one entry are separate records, joined by “and”; a condition that tells them apart may be missing. Equal entries are not always repeated.

Consider `Oc1ccc2c(c1)oc1c3ccccc3c(O)cc21`, for which the residual activity at ABL1 (human) was 83%; at AURKA (human) it was 103%; at BRSK1 (human), 73%; at BTK (human) it was 60%; on CLK2 (human), 8%; at DAPK1 (human), 31%. The residual activity at EPHA4 (human) was determined as 100%; at EPHB1 (human) it was 107%; on EPHB2 (human), 100%; on EPHB4 (human), 103%; at ERBB4 (human), 77%; at FLT1 (human), 40%. Further, the residual activity on GCK (human) came to 65%; on HIPK1 (human) it was 74%; on INSR (human) it was 98%; on IRAK4 (human), 75%; at JAK2 JH1 JH2 (human), 117%; at MAP2K6 (human), 92%. Further, the residual activity came out at 67% on MAP3K1 (human); 87% on MAP3K5 (human); 71% at MAP3K7 TAB1 (human); 105% on MAPK10 (human); 88% on MARK1 (human); 87% at MARK2 (human). Also, the residual activity came out at 99% on MARK4 (human); 107% on NTRK1 (human); 87% in [1]; 105% at RPS6KA5 KD1 KD2 (human) (compound 1.0 µM); 71% in test [2]; 85% on STK16 (human). Moreover, the figures for the residual activity at STK33 (human), on TAOK1 (human) and on TTK (human) were 85%, 99% and 63%, respectively.
On to `COc1ccc2c(c1)[nH]c1c(C)nccc12`, for which the residual activity at ABL1 (human) was found to be 111%; on AURKA (human), 93%; on BRSK1 (human) it was 83%; at BTK (human) it was 69%; at CLK2 (human), 10%; on DAPK1 (human) it was 95%. Also, the residual activity on DYRK1A (human) turned out to be 2%; at EPHA4 (human), 97%; at EPHB1 (human) it was 103%; at EPHB2 (human), 136%; on EPHB4 (human) it was 101%; at ERBB4 (human), 92%. Also, the residual activity on FLT1 (human) is 78%; at GCK (human), 68%; at HIPK1 (human), 119%; at INSR (human), 100%; on IRAK4 (human), 59%; on JAK2 JH1 JH2 (human) it was 92%. Moreover, the residual activity at MAP2K6 (human) amounted to 95%; on MAP3K1 (human), 89%; on MAP3K5 (human), 95%; on MAP3K7 TAB1 (human), 95%; at MAPK10 (human) it was 81%; on MARK1 (human), 88%. Besides, the residual activity is 80% on MARK2 (human); 89% at MARK4 (human); 104% at NTRK1 (human); 89% in test [1]; 99% and 115% on PDPK1 (human); 94% in [2]. Besides, the residual activity was 92% at STK16 (human), 97% at STK33 (human), 111% at TAOK1 (human) and 75% at TTK (human).
As for `Oc1ccc2c(c1)C(O)c1cc(O)ccc1-2`, the residual activity on RPS6KA5 KD1 KD2 (human) (compound 20.0 µM) was 85%.
